Test results from paper PMC12212259, “Evaluation of AlphaFold modeling for elucidation of nanobody–peptide epitope interactions” (The Journal of Biological Chemistry, 2025).
Peptide text beside a SMILES is read from it.

Columns and labels:
Nb127 = assay: SPR analysis of 127-tag binding to immobilized Nb127-biotin; conditions: Biacore T200, Nb127-biotin on streptavidin chip, 127 tag 400-6.25 nM, PBS pH 7.4 + 0.05% P20, 1:1 kinetics binding model
Method: (§1) SPR biosensor analysis was conducted on a Biacore T200 instrument (Cytiva) using a Series S Sensor Chip SA (streptavidin; Cytiva, #29104992) to determine Nb–tag binding affinity. All binding analyses were done in degassed SPR running buffer (1X PBS at pH 7.4 plus 0.05% P20). Biotinylated Nbs (Nb6E or Nb127), produced by sortagging reaction, was captured on SA chip where streptavidin is covalently coupled to dextran matrix. Biotinylated Nb (1 μM) was immobilized on flow cell via biotin–streptavidin interaction to reach a target response value of approximately 2000 response units. A separate flow cell was capped with only SPR running buffer to use as a surface control for nonspecific binding.
(§2) Analyte samples (127-tag peptide or mutant-6E peptides) were prepared as serial dilutions in SPR running buffer. Analyte was flowed over the chip at 50 μl/min with a contact time of 60 s and a dissociation time of 120 s. A duplicate injection of one concentration and a buffer injection (blank) were used for assessing chip surface performance and double referencing, respectively. […] Kinetic constants and KD values (M) were calculated from local fittings using 1:1 kinetics binding model for peptide (analyte) binding to Nb–biotin on the BIAevaluation software (Cytiva).

[1] = test system: Nb6E (A2AR-Nb6E-ALFA) on HEK293 cells; assay: Flow cytometry competition binding against FAM-6E-C14 on HEK293 cells; parameters: species or system human; conditions: peptides 10-0.01 μM vs 10 nM FAM-6E-C14, 30 m, median AF647 fluorescence
Method: Human embryonic kidney 293 cells stably expressing a cell surface protein fused with Nb6E (A2AR-Nb6E-ALFA, described previously ([25])) were cultured in Dulbecco's modified Eagle's media containing 10% fetal bovine serum (Thermo; #A5256801) and 1X penicillin–streptomycin (Thermo; #15140-122). Binding assays were performed as described previously ([25]). Briefly, cells were suspended in 2% bovine serum albumin (BSA) in 1X PBS (w/v) (BSA-PBS) with variable concentrations of unlabeled variant 6E peptides (10–0.01 μM) and 10 nM fluorescein-labeled 6E peptide (FAM-6E-C14) for 30 m followed by 2x washing with BSA-PBS, and subsequent staining with antifluorescein Ab conjugated with AlexaFluor647 (1.5:1000 dilution in BSA-PBS; Jackson ImmunoResearch; #200-602-037). Cells were incubated again for 30 m, pelleted, washed, and analyzed by flow cytometry on a CytoFlex flow cytometer (Beckman Coulter). Cell labeling intensity was monitored in the FL4-APC channel. Live cells were identified and gated based on forward scatter–side scatter profile. […] Median fluorescence intensity for cell counts observed in the APC channel for each sample was calculated from histograms. Median fluorescence intensity values obtained from technical replicates of the same sample were averaged and plotted against the corresponding concentration of the variant 6E peptide.

Nb6E [2] = conditions: cited from earlier work
Nb6E [3] = assay: SPR analysis of 6E variant peptides binding to immobilized Nb6E-biotin
Method: as §1, §2

Row | Compound | Kd (Nb127) | rank of binding affinities (competition binding assay) [1] | experimental binding to Nb6E (earlier work) (Nb6E [2]) | rank of binding affinities (SPR) (Nb6E [3])
1 | NCCCC[C@H](NC(=O)[C@H](Cc1c[nH]c2ccccc12)NC(=O)[C@H](Cc1ccccc1)NC(=O)[C@H](CC(=O)O)NC(=O)[C@H](CCC(=O)O)NC(=O)[C@H](Cc1ccccc1)NC(=O)[C@@H](N)CO)C(=O)NCC(=O)N[C@@H](CCC(=O)O)C(=O)N[C@@H](CC(=O)O)C(N)=O [127-tag] (H-SFEDFWKGED-NH2) | 14 nM | – | – | –
2 | CC[C@H](C)[C@H](NC(=O)[C@H](CCC(N)=O)NC(=O)[C@H](CCCNC(=N)N)NC(=O)[C@H](C)NC(=O)[C@H](CC(C)C)NC(=O)[C@H](CCC(=O)O)NC(=O)[C@H](CCCCN)NC(=O)[C@H](C)NC(=O)[C@H](CCC(=O)O)NC(=O)[C@H](CCC(N)=O)NC(=O)[C@H](CC(=O)O)NC(=O)[C@H](C)NC(=O)[C@@H](N)CCC(N)=O)C(=O)N[C@@H](CO)C(N)=O [6E-L9 (WT)] (H-QADQEAKELARQIS-NH2) | – | 6E-M9 > 6E-WT > 6E-F9 | substantially higher affinity than the 6E-A9 variant | 6E-M9 > 6E-WT > 6E-F9
3 | CC[C@H](C)[C@H](NC(=O)[C@H](CCC(N)=O)NC(=O)[C@H](CCCNC(=N)N)NC(=O)[C@H](C)NC(=O)[C@H](CCSC)NC(=O)[C@H](CCC(=O)O)NC(=O)[C@H](CCCCN)NC(=O)[C@H](C)NC(=O)[C@H](CCC(=O)O)NC(=O)[C@H](CCC(N)=O)NC(=O)[C@H](CC(=O)O)NC(=O)[C@H](C)NC(=O)[C@H](CCC(N)=O)NC(=O)CNC(=O)CNC(=O)CN)C(=O)N[C@@H](CO)C(N)=O [6E-M9] (H-GGGQADQEAKEMARQIS-NH2) | – | 6E-M9 > 6E-WT > 6E-F9 | – | 6E-M9 > 6E-WT > 6E-F9
